Assay in all cases: relative viability (nuclei count vs DMSO), 5 days (fraction); higher = more cells survive
Compound in the assay “Olaparib + Palbociclib”: O=C(c1cc(Cc2n[nH]c(=O)c3ccccc23)ccc1F)N1CCN(C(=O)C2CC2)CC1 [Olaparib] + CC(=O)c1c(C)c2cnc(Nc3ccc(N4CCNCC4)cn3)nc2n(C2CCCC2)c1=O [Palbociclib] (partner 0.5 µM)
The procedure, abridged: (§1)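 Relative viability divides the nuclei count in treated wells by that in vehicle wells. Lung cancer cell lines were seeded in 1536-well plates, dosed by pin tool the next day, and fixed and stained after 5 days in one step with final 0.05% Triton X-100, 1% formaldehyde and 1 ug/ml Hoechst. Dosing was a single drug or a fixed anchor-drug dose plus five library-drug doses (not always all listed) in √10 steps, and values are medians of duplicate plates imaged at 4×.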

Compound in the assay “Olaparib + Navitoclax”: O=C(c1cc(Cc2n[nH]c(=O)c3ccccc23)ccc1F)N1CCN(C(=O)C2CC2)CC1 [Olaparib] + CC1(C)CCC(c2ccc(Cl)cc2)=C(CN2CCN(c3ccc(C(=O)NS(=O)(=O)c4ccc(N[C@H](CCN5CCOCC5)CSc5ccccc5)c(S(=O)(=O)C(F)(F)F)c4)cc3)CC2)C1 [Navitoclax] (partner 0.5 µM)
The procedure, abridged: as §1

Compound in the assay “Crizotinib + Lapatinib”: C[C@@H](Oc1cc(-c2cnn(C3CCNCC3)c2)cnc1N)c1c(Cl)ccc(F)c1Cl [Crizotinib] + CS(=O)(=O)CCNCc1ccc(-c2ccc3ncnc(Nc4ccc(OCc5cccc(F)c5)c(Cl)c4)c3c2)o1 [Lapatinib] (partner 2 µM)
The procedure, abridged: as §1

Compound in the assay “Crizotinib + Foretinib”: C[C@@H](Oc1cc(-c2cnn(C3CCNCC3)c2)cnc1N)c1c(Cl)ccc(F)c1Cl [Crizotinib] + COc1cc2c(Oc3ccc(NC(=O)C4(C(=O)Nc5ccc(F)cc5)CC4)cc3F)ccnc2cc1OCCCN1CCOCC1 [Foretinib] (partner 0.25 µM)
The procedure, abridged: as §1

Compound in the assay “Carfilzomib + Trametinib”: CC(C)C[C@H](NC(=O)[C@H](CCc1ccccc1)NC(=O)CN1CCOCC1)C(=O)N[C@@H](Cc1ccccc1)C(=O)N[C@@H](CC(C)C)C(=O)[C@@]1(C)CO1 [Carfilzomib] + CC(=O)Nc1cccc(-n2c(=O)n(C3CC3)c(=O)c3c(Nc4ccc(I)cc4F)n(C)c(=O)c(C)c32)c1 [Trametinib] (partner 0.02 µM)
The procedure, abridged: as §1

As for NCI-H1793, the relative viability in the assay with Olaparib + Palbociclib (first compound 0.08 µM) was 0.274; with Olaparib + Palbociclib (first compound 0.253 µM), 0.302; with Olaparib + Palbociclib (first compound 2.53 µM), 0.327; in the assay with Olaparib + Palbociclib (first compound 8 µM) it was 0.286; with Olaparib + Navitoclax (first compound 0.08 µM) it was 0.406; in the assay with Olaparib + Navitoclax (first compound 0.253 µM), 0.421. Besides, the relative viability in the assay with Olaparib + Navitoclax (first compound 2.53 µM) stood at 0.416; with Olaparib + Navitoclax (first compound 8 µM), 0.385; with Crizotinib + Lapatinib (first compound 0.01 µM) it was 0.68; with Crizotinib + Lapatinib (first compound 0.03162 µM), 0.737; with Crizotinib + Lapatinib (first compound 0.1 µM) it was 0.749; with Crizotinib + Lapatinib (first compound 1 µM), 0.802. For the same cell line, the relative viability with Crizotinib + Foretinib (first compound 0.03162 µM) came out at 0.879; in the assay with Crizotinib + Foretinib (first compound 0.1 µM), 0.604; with Crizotinib + Foretinib (first compound 1 µM), 0.705; in the assay with Carfilzomib + Trametinib (first compound 0.001 µM) it was 0.38; with Carfilzomib + Trametinib (first compound 0.003162 µM) it was 0.497; with Carfilzomib + Trametinib (first compound 0.01 µM), 0.46. Besides, the relative viability with Carfilzomib + Trametinib (first compound 0.03162 µM) came to 0.472; in the assay with Carfilzomib + Trametinib (first compound 0.1 µM) it was 0.35.

These data come from the supplement of paper PMC10307832.
